In one experiment the target is T1, E. coli DNA gyrase (Escherichia coli, UniProt P0AES6).
T1 construct: made in house; host or cells: E. coli BL21 (DE3)
Put plainly: Test for evaluating the activity of inhibiting E. coli DNA gyrase enzyme (Method 2, supercoiling, recombinant gyrA/gyrB complex). Type of experiment: biochemical. On the procedure:
The enzymatic activity of E. coli DNA gyrase was measured by a method comprising reacting DNA gyrase and its substrate, relaxed pBR322 (Inspiralis), in the presence of ATP and detecting the post-reaction supercoiled pBR322/relaxed pBR322 ratio with H19.
Specifically, to 1 ng/μL of relaxed pBR322, E. coli DNA gyrase enzyme (the gyrA or gyrB gene was incorporated into the pET15b plasmid and after expressing them in E. coli BL21 (DE3), purification was performed using a Ni-NTA column to form a complex at room temperature) was added at a final concentration of 0.135 nmol/mL and the mixture was incubated for 60 minutes at room temperature. This reaction was carried out in 20 mmol/L tris-HCl buffered solution (pH 8.0) comprising 0.5 mmol/L ATP, 0.005% bridge 35, 35 mmol/L ammonium acetate, 8 mmol/L magnesium chloride, 4.6% glycerol, and 1 mmol/L dithiothreitol. To the reaction mixture, H19 was added to bring the reaction to an end; thereafter, the supercoiled pBR322/relaxed pBR322 ratio was detected at excitation wavelength/emission wavelength=485 nm/535 nm. An inhibition curve was obtained by allowing the analyte compound to be present at varying concentrations during the reaction described above.

Another experiment relates to E. Coli ATCC 25922. Nature of the experiment: Test for evaluating antibacterial activity (E. coli), broth microdilution MIC. It is filed as cell-based. Conditions: Escherichia coli, ATCC25922; 35° C., 18 hours, cation-adjusted Mueller-Hinton medium. As for the experimental part: Minimum inhibitory concentration (MIC) was measured using the broth microdilution method described below in accordance with a modification of the standard method specified by CLSI (Clinical & Laboratory Standards Institute).
Bacterial cells under test were cultured overnight on a heart infusion agar medium, scraped off and suspended at a concentration equivalent to McFarland 0.5 turbidity; the suspension thus obtained was diluted 10 folds to give a liquid inoculum. The inoculum (0.005 mL) was inoculated on a cation-adjusted Mueller-Hinton medium containing the analyte compound and cultured at 35° C. for 18 hours. A minimum drug concentration at which no bacterial growth was macroscopically visible was designated MIC.
In general terms: Dilution methods test growth across graded concentrations, often in twofold steps.

The subject of experiment [1] is N. gonorrhoeae ATCC 49226. Put plainly: Test for evaluating antibacterial activity (N. gonorrhoeae), broth microdilution MIC. It is filed as cell-based. The note with it: Neisseria gonorrhoeae, ATCC49226; 35° C., 24 hours, gonococcal broth. As for the experimental part:
Minimum inhibitory concentration (MIC) was measured using the broth microdilution method described below in accordance with a modification of the method of Geers et al. (Antimicrob. Agents. Chemother. (1989), 33, 233-234).
After sterilization, BD. Difco supplement C was added to give a final concentration of 1%, whereby a gonococcal broth was prepared.
Bacterial cells under test were cultured overnight on a chocolate II agar medium, scraped off and suspended at a concentration equivalent to McFarland 0.5 turbidity; the suspension thus obtained was diluted 5 folds to give a liquid inoculum. The inoculum (0.005 mL) was inoculated on a gonococcal broth containing the analyte compound and cultured at 35° C. for 24 hours. A minimum drug concentration at which no bacterial growth was macroscopically visible was designated MIC.

The mark [2] stands for this setting: Method 2, read-out: E. Coli Gyrase supercoiling IC50.

Molecules are shown by their SMILES. Values after ≈ are worked out from the molar mass of the structure shown. Read-outs that look alike come from different tables or passages of the source.

With `CNc1cc(F)cc2c(O)c(C(=O)Nc3ccc(C(=O)OC)cc3CN3CCCCC3)c(=O)[nH]c12` [Example 152, Methyl 4-[[6-fluoro-4-hydroxy-8-(methylamino)-2-oxo-1,2-dihydroquinoline-3-carbonyl]amino]-3-[(piperidin-1-yl)methyl]benzoate], the IC50 – broadly, the concentration that inhibits the measured activity by half – at E. coli DNA gyrase (setting [2]) came to 1230 nM. For the same compound, the values for the MIC (against E. Coli ATCC 25922; in experiment [1]) were greater than 16 µg/mL and 4 µg/mL (≈ 8.29 µM), respectively.
Consider `CNc1cc(F)cc2cc(C(=O)Nc3cnccc3CN(C)C3CCCCC3)c(=O)[nH]c12` [Example 95, N-(4-{[cyclohexyl(methyl)amino]methyl}pyridine-3-yl)-6-fluoro-8-(methylamino)-2-oxo-1,2-dihydroquinoline-3-carboxamide], for which the IC50 on E. coli DNA gyrase came out at 2.16 nM. Moreover, the MIC (in general, the least concentration at which growth counts as inhibited) against E. Coli ATCC 25922 is greater than 16 µg/mL; in experiment [1] it was 1 µg/mL (≈ 2.29 µM).
As to `CNc1cc(F)cc2cc(C(=O)Nc3ccc(C(O)C(N)=O)cc3)c(=O)[nH]c12` (centres unmarked) [Example 158, N-[4-(2-amino-1-hydroxy-2-oxoethyl)phenyl]-6-fluoro-8-(methylamino)-2-oxo-1,2-dihydroquinoline-3-carboxamide], on E. coli DNA gyrase (setting [2]), the IC50 was 7.78 nM. Besides, the results for the MIC (in the experiment with E. Coli ATCC 25922; in experiment [1]) were greater than 16 µg/mL and 0.03 µg/mL (≈ 0.0781 µM), respectively.
For `CNc1cc(F)cc2cc(C(=O)Nc3ccc(C4OC(=O)NC4=O)cc3)c(=O)[nH]c12` (centres unmarked) [Example 159, N-[4-(2,4-Dioxo-1,3-oxazolidin-5-yl)phenyl]-6-fluoro-8-(methylamino)-2-oxo-1,2-dihydroquinoline-3-carboxamide], the half-maximal inhibitory concentration (IC50) on E. coli DNA gyrase (setting [2]) worked out at 1.08 nM. Besides, the figures for the minimal inhibitory concentration (MIC) (in the experiment on E. Coli ATCC 25922; in experiment [1]) were greater than 16 µg/mL and 0.002 µg/mL (≈ 0.00487 µM), respectively.
The matching figures for `CCCCCCCCN(CCCCCCCC)Cc1cc(C(=O)O)ccc1NC(=O)c1cc2cc(F)cc(NC)c2[nH]c1=O` [Example 106, 3-[(dioctylamino)methyl]-4-{[6-fluoro-8-(methylamino)-2-oxo-1,2-dihydroquinoline-3-carbonyl]amino} benzoic acid]: 6.98 nM, greater than 8 µg/mL and 0.5 µg/mL (≈ 0.821 µM).
Regarding `CNc1cc(F)cc2cc(C(=O)Nc3ccc(C(=O)O)cc3CN(C)C3CCN(C)CC3)c(=O)[nH]c12.Cl` [Example 83, 4-{[6-fluoro-8-(methylamino)-2-oxo-1,2-dihydroquinoline-3-carbonyl]amino)-3-{[methyl(1-methylpiperidine-4-yl)amino]methyl} benzoic acid-hydrochloride], the IC50 at E. coli DNA gyrase came to 1.09 nM. In addition, the minimum inhibitory concentration (MIC) is greater than 16 µg/mL against E. Coli ATCC 25922 and greater than 4 µg/mL in experiment [1].
Turning to `CNc1cc(F)cc2cc(C(=O)NCCc3ccc(O)c(OC)c3)c(=O)[nH]c12` [Example 81, 6-fluoro-N-[2-(4-hydroxy-3-methoxyphenyl)ethyl]-8-(methylamino)-2-oxo-1,2-dihydroquinoline-3-carboxamide], on E. coli DNA gyrase (setting [2]), the IC50 was 110 nM. Also, in experiment [1], the MIC is greater than 1 µg/mL.
As to `CNc1cc(F)cc2cc(C(=O)Nc3ccc(C(N)=O)cc3CN(C)C3CCCCC3)c(=O)[nH]c12` [Example 121, N-(4-carbamoyl-2-{[cyclohexyl(methyl)amino]methyl}phenyl)-6-fluoro-8-(methylamino)-2-oxo-1,2-dihydroquinoline-3-carboxamide], the half-maximal inhibitory concentration (IC50) at E. coli DNA gyrase (setting [2]) was 2.48 nM. Besides, the values for the minimum inhibitory concentration (MIC) (with E. Coli ATCC 25922; in experiment [1]) were greater than 32 µg/mL and 0.25 µg/mL (≈ 0.521 µM), respectively.
The matching figures for `CNc1cc(F)cc2nc(C(=O)Nc3ccc(C(=O)O)cc3CN(C)C3CCCCC3)c(=O)[nH]c12` [Example 100, 3-[[Cyclohexyl(methyl)amino]methyl]-4-[[7-fluoro-5-(methylamino)-3-oxo-3,4-dihydroquinoxaline-2-carbonyl]amino]benzoic Acid]: 33.7 nM, greater than 64 µg/mL and greater than 1 µg/mL.
The matching figures for `CNc1cc(F)cc2cc(C(=O)Nc3ccc(-c4nnn[nH]4)cc3)c(=O)[nH]c12` [Example 149, 6-fluoro-8-(methylamino)-2-oxo-N-[4-(1H-tetrazole-5-yl)phenyl]-1,2-dihydroquinoline-3-carboxamide]: 0.55 nM, greater than 8 µg/mL and 0.03 µg/mL (≈ 0.0791 µM).
The matching figures for `CNc1cc(F)cc2c(O)c(C(=O)Nc3cncnc3)c(=O)[nH]c12` [Example 138, 6-fluoro-4-hydroxy-8-(methylamino)-2-oxo-N-(pyrimidine-5-yl)-1,2-dihydroquinoline-3-carboxamide]: 129 nM, 32 µg/mL (≈ 97.2 µM) and 0.06 µg/mL (≈ 0.182 µM).
`CNc1cc(F)cc2cc(C(=O)Nc3ccc(C(=O)NS(C)(=O)=O)cc3)c(=O)[nH]c12` [Example 145, 6-fluoro-N-{4-[(methanesulfonyl)carbamoyl]phenyl}-8-(methylamino)-2-oxo-1,2-dihydroquinoline-3-carboxamide]: the IC50 at E. coli DNA gyrase (setting [2]) turned out to be 0.19 nM. The values for the minimal inhibitory concentration (MIC) (in the experiment with E. Coli ATCC 25922; in experiment [1]) were greater than 32 µg/mL and 0.06 µg/mL (≈ 0.139 µM), respectively.
In the same order, the values of `CNc1cccc2cc(C(=O)Nc3cccc(CC(=O)O)c3)c(=O)[nH]c12` [Example 4, (3-{[8-(methylamino)-2-oxo-1,2-dihydroquinoline-3-carboyl]amino}phenyl)acetic acid] are 164 nM, greater than 64 µg/mL and greater than 4 µg/mL.
The matching figures for `O=C(O)c1ccc(NC(=O)c2cc3cccc(O)c3[nH]c2=O)cc1` [Example 160, 4-[(8-Hydroxy-2-oxo-1,2-dihydroquinoline-3-carbonyl)amino]benzoic Acid]: 11700 nM, greater than 32 µg/mL and greater than 4 µg/mL.
As for `CNc1cc(F)cc2cc(C(=O)N[C@H]3CC[C@H](C(=O)O)CC3)c(=O)[nH]c12` [Example 116, trans-4-{[6-fluoro-8-(methylamino)-2-oxo-1,2-dihydroquinoline-3-carbonyl]amino} cyclohexane-1-carboxylic acid], at E. coli DNA gyrase, the IC50 came out at 137 nM. The MIC in the experiment on E. Coli ATCC 25922 is greater than 64 µg/mL; in experiment [1] it was greater than 1 µg/mL.
In the same order, the values of `CNc1cc(F)cc2c(NCC3CNC3)c(C(=O)Nc3ccc(C(=O)O)cc3)c(=O)[nH]c12.O=CO` [Example 135, 4-{[4-{[(azetidine-3-yl)methyl]amino}-6-fluoro-8-(methylamino)-2-oxo-1,2-dihydroquinoline-3-carbonyl]amino}benzoic acid-formate] are 0.66 nM, greater than 16 µg/mL and 0.12 µg/mL.
Regarding `CNc1cc(F)cc2c(OC)c(C(=O)Nc3ccc(C(=O)O)cc3)c(=O)[nH]c12` [Example 118, 4-[[6-Fluoro-4-methoxy-8-(methylamino)-2-oxo-1,2-dihydroquinoline-3-carbonyl]amino]benzoic Acid], the inhibition (in general, the relative decrease from the control value, in per cent) at 0.1 µM at E. coli DNA gyrase (Method 2, at 100 nM) was 45%. Further, the MIC in the experiment on E. Coli ATCC 25922 is greater than 64 µg/mL; in experiment [1], 1 µg/mL (≈ 2.6 µM).
For the compound `CNc1cccc2cc(C(=O)Nc3cccc(C(=O)O)c3)c(=O)[nH]c12` [Example 1, 3-[[8-(Methylamino)-2-oxo-1,2-dihydroquinoline-3-carbonyl]amino]benzoic Acid], on E. coli DNA gyrase (setting [2]), the IC50 was found to be 52.3 nM. The minimal inhibitory concentration (MIC) with E. Coli ATCC 25922 was greater than 64 µg/mL; in experiment [1], greater than 4 µg/mL.
`CNc1cccc2cc(C(=O)NCc3ccc(C(=O)O)cc3)c(=O)[nH]c12` [Example 6, 4-({[8-(methylamino)-2-oxo-1,2-dihydroquinoline-3-carbonyl]amino}methyl)benzoic acid]: the MIC with E. Coli ATCC 25922 is greater than 64 µg/mL; in experiment [1], 4 µg/mL (≈ 11.4 µM).
Turning to `CNc1cc(F)cc2cc(CNc3ccc(C(=O)O)cc3CN(C)C3CCCCC3)c(=O)[nH]c12` [Example 128, 3-[[Cyclohexyl(methyl)amino]methyl]-4-([[6-fluoro-8-(methylamino)-2-oxo-1,2-dihydroquinolin-3-yl]methyl]amino)benzoic Acid], the 50% inhibitory concentration (IC50) at E. coli DNA gyrase (setting [2]) turned out to be 340 nM. In the experiment with E. Coli ATCC 25922, this compound displayed a minimum inhibitory concentration (MIC) greater than 16 µg/mL.
The matching figures for `CNc1cc(F)cc2cc(C(=O)Nc3ccc(C(=O)O)cc3CN(CCCN(C)C)CCCN(C)C)c(=O)[nH]c12` [Example 105, 3-({bis[3-(dimethylamino)propyl]amino}methyl)-4-{[6-fluoro-8-(methylamino)-2-oxo-1,2-dihydroquinoline-3-carbonyl]amino} benzoic acid]: 29.8 nM and greater than 32 µg/mL.

The values above are taken from patent publication US20210070747A1, “2(1H)-QUINOLINONE DERIVATIVE” (priority 2017, published 2021).
